Patent publication US7173061B2, “Compounds for imaging alzheimer's disease” (GE Healthcare Limited, priority 2001, dated 2007)
No end group written: not given here.

Biological target: T1, amyloid 1-40 fibrils (fibrillar BAP 1-40) (Homo sapiens, UniProt P05067)
T1 construct: used to immobilise fibrillar Beta-Amyloid Protein (BAP 1-40); purchased Biosource 03-138 (BAP 1-40); 03-243 (biotinylated BAP 1-40)
Assay: Determination of amyloid binding (scintillation proximity assay beads coated with fibrillar BAP 1-40)
Details: SPA-BAP beads, 180 minutes at room temperature, equimolar amounts, SPA-NSB counts subtracted; 125I-BAP binding taken as 100%
Procedure: The binding of Compounds was determined compared to the ability of ^125I-beta amyloid protein 1-40 (^125I-BAP 1-40, Amersham Biosciences IM294)) to bind to amyloid 1-40 fibrils. Amyloid binding was essentially performed as follows.
Three fresh buffer stocks were prepared for experiments: Buffer 1, 50 mM HEPES/0.1% Bovine Serum Albumin (BSA) pH 7.5; Buffer 2, 50 mM HEPES/0.1% BSA/400 μM ZnCl2 pH 7.5; Buffer 3, 50 mM HEPES/0.1% BSA/100 μM ZnCl2 pH 7.5.
Streptavidin coated scintillation proximity assay beads (SA-SPA beads, Amersham Biosciences) were used to immobilise fibrillar Beta-Amyloid Protein (BAP 1-40). Amyloid coated beads (SPA-BAP) were prepared by incubating 250 μl SA-SPA beads (100 mg/ml) with 250 μl Buffer 2, 425 μl Buffer 1, 50 μl biotinylated BAP 1-40 (0.5 mg/ml, Biosource 03–243), 25 μl BAP 1-40 (10 mg/ml, Biosource 03–138). Non-specific binding SPA beads (SPA-NSB) were prepared to assess the binding of compounds to SPA beads with no associated BAP 1-40 fibrils in the following incubation: 250 μl SA-SPA beads (100 mg/ml) with 250 μl Buffer 2, 500 μl Buffer 1.
SPA-BAP and SPA-NSB incubations were left for 24 hours at room temperature and then spun 1.5 ml tubes (eppendorf, Merk, 306/0421/12) for 2 minutes at 1000×g. The supernatants were removed and the beads were washed twice by resuspending them in 1 ml Buffer 3 followed by centrifugation for 2 minutes at 1000×g. Finally, washed SPA-BAP and SPA-NSB beads were resuspended in 1 ml Buffer 3.
Amyloid binding of ^125I-BAP 1-40 and test compounds was performed in triplicate in 0.5 ml tubes (eppendorf, Merk, 306/0421/02) by adding 50 μl SPA-BAP beads to 25 μl Buffer 2 and 25 μl labelled compound (^125I-BAP 1-40 or test compound). Tubes were then incubated for 180 minutes at room temperature with shaking, followed by centrifugation for 2 minutes at 1000×g. The supematants were removed and SPA-BAP pellet washed twice with 300 μl Buffer 3 containing 1% TWEEN-20 (Sigma, P7949). Non-specific binding for labelled compounds to the SPA beads was determined using incubations as described above but by substituting SPA-BAP beads with SPA-NSB beads. Radioactivity associated with the washed SPA bead pellets was then determined.
The affinity of labelled compounds for fibrillar BAP 1-40 was estimated by subtracting SPA-NSB associated counts from SPA-BAP associated counts. The binding of labelled compounds was then compared to ^125I-BAP binding, which was taken as being 100%.
In these experiments, ^125I-BAP 1-40 or test compounds were added in equimolar amounts.

T1 sequence (P05067 672-711): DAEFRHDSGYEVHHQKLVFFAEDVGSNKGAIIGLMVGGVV

**Q.** “^125I-BAP 1-40: 125I-beta amyloid protein 1-40, Amersham Biosciences IM294; reference whose binding to amyloid fibrils is taken as 100% [reference compound]” was tested. Which “Amyloid binding (% of 125I-BAP 1-40)” value did it give?
**A.** Its value is 100%.

**Q.** `CCN(CC)CCOc1ccc(C(=O)c2c(-c3ccc(OCC(=O)NCCN(CCNC(C)(C)/C(C)=N\O)CCNC(C)(C)/C(C)=N\O)cc3)oc3ccc(Cl)cc23)cc1` [Example 1(vii) Pn216 conjugated] was tested. Which “Amyloid binding (% of 125I-BAP 1-40)” value did it give?
**A.** Its value is 23%.

**Q.** Which “Amyloid binding (% of 125I-BAP 1-40)” value does the source give for “^125I-KKLVFFA (BAP 15-21): 125I-labelled BAP 15–21 sequence (Amersham Biosciences), responsible for the binding of BAP to itself (also: 125I label) [reference compound]” here?
**A.** Its value is 21%.

**Q.** Which “Amyloid binding (% of 125I-BAP 1-40)” value does the source give for `CCN(CC)CCCOc1ccc(C(=O)c2c(-c3ccc(OCC(=O)NCCN(CCNC(C)(C)/C(C)=N/O)CCNC(C)(C)/C(C)=N/O)cc3)oc3ccc(Cl)cc23)cc1` [Example 2(vii) Pn216 conjugated] here?
**A.** The value was 15%.

**Q.** Which “Amyloid binding (% of 125I-BAP 1-40)” value does the source give for `C/C(=N\O)C(C)(C)NCCN(CCNC(=O)COc1ccc(-c2cc3cc(Cl)ccc3o2)cc1)CCNC(C)(C)/C(C)=N/O` [Example 8(iii) Pn216 conjugated] here?
**A.** Its value is 40%.
